Reference: ChEMBL document CHEMBL2203204, “Identification of selective inhibitors of indoleamine 2,3-dioxygenase 2” (Bioorg Med Chem Lett, 2012)
Active and inactive are the calls of the source. The rule behind the calls is not given here.

What was measured:
[1] = target: T1, Indoleamine 2,3-dioxygenase 2 (Mus musculus) (UniProt Q8R0V5); conditions: HEK-293T, at 20 µM
T1 sequence (whole entry): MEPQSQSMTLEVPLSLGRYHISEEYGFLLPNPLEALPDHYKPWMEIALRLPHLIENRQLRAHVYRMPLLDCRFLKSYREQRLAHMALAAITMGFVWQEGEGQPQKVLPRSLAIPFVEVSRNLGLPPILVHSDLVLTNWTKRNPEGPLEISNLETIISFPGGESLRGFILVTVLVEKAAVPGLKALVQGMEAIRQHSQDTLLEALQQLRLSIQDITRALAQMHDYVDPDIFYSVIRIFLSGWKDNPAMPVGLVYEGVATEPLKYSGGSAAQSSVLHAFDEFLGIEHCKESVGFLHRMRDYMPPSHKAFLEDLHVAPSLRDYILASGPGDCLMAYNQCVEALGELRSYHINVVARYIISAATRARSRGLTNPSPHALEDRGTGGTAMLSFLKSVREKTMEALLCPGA
Description: (§1) Inhibition of mouse Ido2 transfected in HEK293T cells using L-tryptophan as substrate assessed as kynurenine formation at 20 uM after 45 mins by spectrophotometric analysis relative to control

[2] = target: Tryptophan 2,3-dioxygenase (Mus musculus) (UniProt P48776); assay: Inhibition of mouse Tdo2 transfected in HEK293T cells using L-tryptophan as substrate assessed as kynurenine formation at 100 uM after 45 mins by spectrophotometric analysis relative to control; assay type: cell-based; conditions: HEK-293T
Tryptophan 2,3-dioxygenase (Mus musculus), sequence (P48776 whole entry): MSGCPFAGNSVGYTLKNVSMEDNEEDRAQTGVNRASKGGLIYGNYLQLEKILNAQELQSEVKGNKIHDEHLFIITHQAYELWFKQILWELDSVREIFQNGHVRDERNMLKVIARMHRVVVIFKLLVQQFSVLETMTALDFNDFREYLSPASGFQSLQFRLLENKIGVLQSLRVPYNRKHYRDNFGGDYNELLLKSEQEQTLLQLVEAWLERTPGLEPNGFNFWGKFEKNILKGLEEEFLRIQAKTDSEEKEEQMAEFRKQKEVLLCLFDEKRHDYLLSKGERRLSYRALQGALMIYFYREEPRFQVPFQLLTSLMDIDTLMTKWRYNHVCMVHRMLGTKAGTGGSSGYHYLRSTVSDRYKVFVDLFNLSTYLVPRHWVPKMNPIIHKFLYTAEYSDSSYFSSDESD

[3] = target: Indoleamine 2,3-dioxygenase 1 (Mus musculus, UniProt P28776); assay: Inhibition of mouse Ido1 transfected in HEK293T cells using L-tryptophan as substrate assessed as kynurenine formation after 45 mins by spectrophotometric analysis; assay type: cell-based, HEK-293T
Indoleamine 2,3-dioxygenase 1, sequence (P28776 whole entry): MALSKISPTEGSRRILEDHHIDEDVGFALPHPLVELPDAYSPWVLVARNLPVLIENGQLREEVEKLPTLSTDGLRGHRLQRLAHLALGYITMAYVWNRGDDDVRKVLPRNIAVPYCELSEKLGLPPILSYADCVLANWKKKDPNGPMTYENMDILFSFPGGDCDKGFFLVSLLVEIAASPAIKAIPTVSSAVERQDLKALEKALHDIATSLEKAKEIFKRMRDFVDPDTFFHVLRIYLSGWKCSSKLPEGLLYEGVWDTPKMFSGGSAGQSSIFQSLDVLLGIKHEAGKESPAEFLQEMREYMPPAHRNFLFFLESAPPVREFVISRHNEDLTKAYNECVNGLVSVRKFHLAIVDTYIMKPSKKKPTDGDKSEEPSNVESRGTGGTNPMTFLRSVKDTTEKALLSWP

[4] = target: T2, Indoleamine 2,3-dioxygenase 2 (Mus musculus, UniProt Q8R0V5); assay: Inhibition of mouse Ido2 transfected in HEK293T cells using L-tryptophan as substrate assessed as kynurenine formation after 45 mins by spectrophotometric analysis; assay type: cell-based, HEK-293T
T2 sequence (Q8R0V5 whole entry): T1 sequence (whole entry)

HEK-293T = assay: Cytotoxicity against HEK293T cells assessed as decrease in cell viability at 25 uM after 24 hrs by trypan blue exclusion assay; assay type: cell-based; conditions: human
Mus musculus = species: Mus musculus; assay: Selectivity ratio of IC50 for mouse Ido1 to IC50 for mouse Ido2
[5] = target: Indoleamine 2,3-dioxygenase 1 (Mus musculus) (UniProt P28776); assay: Inhibition of mouse Ido1 transfected in HEK293T cells using L-tryptophan as substrate assessed as residual activity at 100 uM after 45 mins by spectrophotometric analysis relative to control; assay type: cell-based; conditions: HEK-293T
Indoleamine 2,3-dioxygenase 1 (Mus musculus), sequence (P28776 whole entry, looked up): as the sequence (P28776 whole entry) above

[6] = target: T1, Indoleamine 2,3-dioxygenase 2 (Mus musculus); assay: Inhibition of mouse Ido2 transfected in HEK293T cells using L-tryptophan as substrate assessed as assessed as residual activity at 100 uM after 45 mins by spectrophotometric analysis relative to control; assay type: cell-based; conditions: HEK-293T
[7] = target: Indoleamine 2,3-dioxygenase 2 (Mus musculus) (UniProt Q8R0V5); conditions: HEK-293T, at 20 µM; remark: listed apart in the source
Description: as §1

Compound `CC#CCC(C)[C@H](O)/C=C/[C@@H]1[C@H]2C/C(=C/CCCC(=O)O)C[C@H]2C[C@H]1O` (some centres not stated) has an inhibition [1] greater than 55%.
Work on `CC(C)C[C@H]1C(=O)N2CCC[C@H]2[C@]2(O)O[C@](NC(=O)[C@@H]3C=C4c5cccc6[nH]c(Br)c(c56)C[C@H]4N(C)C3)(C(C)C)C(=O)N12` yielded an inhibition [1] greater than 55%.
In the case of `CC(C)OC(=O)C(C)(C)Oc1ccc(C(=O)c2ccc(Cl)cc2)cc1`, the inhibition [1] is reported as greater than 55%.
With `CC(c1cc2ccccc2s1)N(O)C(N)=O` (configuration not stated) the inhibition [1] was greater than 55%.
For `CC1=C(C)C(=O)C(CCCCC#CCCCC#CCO)=C(C)C1=O`, the inhibition [1] was greater than 55%.
`CCCCCN(CCCCC)C(=O)C(CCC(=O)O)NC(=O)c1ccc(Cl)c(Cl)c1` (configuration not stated) gave an inhibition [1] greater than 55%.
With `CCCSc1ccc2[nH]c(NC(=O)OC)nc2c1` the inhibition [1] was greater than 55%.
For `CCC[S+]([O-])c1ccc2[nH]c(NC(=O)OC)nc2c1` (configuration not stated), the inhibition [1] was greater than 55%.
With `CCCc1nc2c(C)cc(-c3nc4ccccc4n3C)cc2n1Cc1ccc(-c2ccccc2C(=O)O)cc1` the inhibition [1] was greater than 55%.
With `CCN(CC)C(=S)SSC(=S)N(CC)CC` the inhibition [1] was greater than 55%.
With `CCN(CC)CCCC(C)Nc1c2ccc(Cl)cc2nc2ccc(OC)cc12` (configuration not stated) the inhibition [1] was greater than 55%.
Compound `CCOC(=O)C1=C(C)NC(C)=C(C(=O)OC)C1c1cccc(Cl)c1Cl` (configuration not stated) has an inhibition [1] greater than 55%.
`CCOC(=O)C1=C(C)NC(C)=C(C(=O)OC)C1c1cccc([N+](=O)[O-])c1` (configuration not stated) was tested, and the inhibition [1] was greater than 55%.
With `CCOC(=O)C1=C(C)NC(C)=C(C(=O)OCC)C1c1ccccc1/C=C/C(=O)OC(C)(C)C` the inhibition [1] was greater than 55%.
`CC[C@@H](C(N)=O)N1CCCC1=O` showed an inhibition [1] greater than 55%.
Work on `CN1C[C@H](C(=O)N[C@]2(C)O[C@@]3(O)[C@@H]4CCCN4C(=O)[C@H](Cc4ccccc4)N3C2=O)C=C2c3cccc4[nH]cc(c34)C[C@H]21` yielded an inhibition [1] greater than 55%.
Compound `COC(=O)C1=C(C)NC(C)=C(C(=O)OCC(C)C)C1c1ccccc1[N+](=O)[O-]` (configuration not stated) has an inhibition [1] greater than 55%.
For `COC(=O)C1=C(C)NC(C)=C(C(=O)OCCN(C)Cc2ccccc2)C1c1cccc([N+](=O)[O-])c1` (configuration not stated), the inhibition [1] was greater than 55%.
Work on `COC(=O)Nc1nc2cc(C(=O)c3ccccc3)ccc2[nH]1` yielded an inhibition [1] greater than 55%.
`COC(=O)Nc1nc2cc([S+]([O-])c3ccccc3)ccc2[nH]1` (configuration not stated) showed an inhibition [1] greater than 55%.
`COCCOC(=O)C1=C(C)NC(C)=C(C(=O)OC(C)C)C1c1cccc([N+](=O)[O-])c1` (configuration not stated) showed an inhibition [1] greater than 55%.
With `COCCOC(=O)C1=C(C)NC(C)=C(C(=O)OC/C=C/c2ccccc2)C1c1cccc([N+](=O)[O-])c1` (configuration not stated) the inhibition [1] was greater than 55%.
For `COc1cc2c(cc1OC)-c1c/c(=N\c3c(C)cc(C)cc3C)n(C)c(=O)n1CC2`, the inhibition [1] was greater than 55%.
`COc1cc2nc(N(C)CCCNC(=O)C3CCCO3)nc(N)c2cc1OC` (configuration not stated) gave an inhibition [1] greater than 55%.
`COc1ccccc1OCCNCC(O)COc1cccc2[nH]c3ccccc3c12` (configuration not stated) showed an inhibition [1] greater than 55%.
`COc1ccnc(C[S+]([O-])c2nc3cc(OC(F)F)ccc3[nH]2)c1OC` (configuration not stated) was tested, and the inhibition [2] was “inactive”.
In the case of `C[C@@H]1CC[C@H]2[C@@H](C)C(=O)O[C@@H]3O[C@@]4(C)CC[C@@H]1[C@]32OO4`, the inhibition [1] is reported as greater than 55%.
With `C[C@H](CS)C(=O)N1CCC[C@H]1C(=O)O` the inhibition [1] was greater than 55%.
`Clc1ccc(C(Cn2ccnc2)OCc2ccsc2Cl)c(Cl)c1` (configuration not stated) was tested, and the inhibition [1] was greater than 55%.
For `Clc1ccc(C(Cn2ccnc2)OCc2csc3c(Cl)cccc23)c(Cl)c1` (configuration not stated), the inhibition [1] was greater than 55%.
In the case of `Clc1ccc(CO/N=C(\Cn2ccnc2)c2ccc(Cl)cc2Cl)c(Cl)c1`, the inhibition [1] is reported as greater than 55%.
`NC[C@H]1CC[C@H](C(=O)O)CC1` showed an inhibition [1] greater than 55%.
With `O=C(O)Cc1sc(-c2ccccc2)nc1-c1ccc(Cl)cc1` the inhibition [1] was greater than 55%.
`O=C1Nc2ccc(Cl)cc2[C@@](C#CC2CC2)(C(F)(F)F)O1` showed an inhibition [1] greater than 55%.
`OCCN(CCO)c1nc(N2CCCCC2)c2nc(N(CCO)CCO)nc(N3CCCCC3)c2n1` gave an inhibition [1] greater than 55%.
Compound `c1ccc(-c2ccc(C(c3ccccc3)n3ccnc3)cc2)cc1` (configuration not stated) has an inhibition [1] greater than 55%.
`Clc1ccccc1C(c1ccccc1)(c1ccccc1)n1ccnc1` [CLOTRIMAZOLE] gave an inhibition [2] greater than 95%, an IC50 [3] of 51.6 µM and an IC50 [4] of 5.9 µM.
`Clc1ccc(COC(Cn2ccnc2)c2ccc(Cl)cc2Cl)cc1` (configuration not stated) [ECONAZOLE] showed an inhibition [2] greater than 95%, an IC50 [3] of 11.2 µM and an IC50 [4] of 7.6 µM.
`CC1=C(/C=C/C(C)=C/C=C/C(C)=C/C(=O)Nc2ccc(O)cc2)C(C)(C)CCC1` [FENRETINIDE] was tested, and the inhibition [2] was 32%, the inhibition [1] was greater than 55% and the Activity (HEK-293T) was “Non-toxic”. It also gave an IC50 [3] of 59.9 µM and an IC50 [4] of 18.7 µM.
For `Cc1c(OCC(F)(F)F)ccnc1C[S+]([O-])c1nc2ccccc2[nH]1` (configuration not stated) [LANSOPRAZOLE], the inhibition [2] was less than 20%, the Activity (HEK-293T) was “Non-toxic” and the IC50 [3] was 94 µM. It also gave an IC50 [4] of 8.2 µM.
In the case of `Clc1ccc(COC(Cn2ccnc2)c2ccc(Cl)cc2Cl)c(Cl)c1` (configuration not stated) [MICONAZOLE], the inhibition [2] is reported as greater than 95%, the inhibition [1] is reported as greater than 55% and the Activity (HEK-293T) is reported as “Non-toxic”. For the same compound, the IC50 [3] was 17.8 µM and the IC50 [4] was 6.7 µM.
`COC(=O)C1=C(C)NC(C)=C(C(=O)OC)C1c1ccccc1[N+](=O)[O-]` [NIFEDIPINE] was tested, and the Ratio IC50 (Mus musculus) was 30, the inhibition [2] was less than 20% and the inhibition [1] was greater than 55%. For the same compound, the IC50 [3] was 46 µM and the IC50 [4] was 1.5 µM.
`COc1ccnc(C[S+]([O-])c2nc3ccc(OC(F)F)cc3[nH]2)c1OC` (configuration not stated) [PANTOPRAZOLE] gave an IC50 [3] of 109 µM and an IC50 [4] of 12.6 µM.
For `CCCc1nn(C)c2c(=O)[nH]c(-c3cc(S(=O)(=O)N4CCN(C)CC4)ccc3OCC)nc12` [SILDENAFIL], the inhibition [2] was “inactive”, the inhibition [1] was greater than 55% and the IC50 [3] was greater than 100 µM. For the same compound, the IC50 [4] was 4.5 µM.
`Clc1ccc(CSC(Cn2ccnc2)c2ccc(Cl)cc2Cl)cc1` (configuration not stated) [SULCONAZOLE] gave an inhibition [2] greater than 95%, an IC50 [3] of 29.3 µM and an IC50 [4] of 10.1 µM.
For `COc1ccc2[nH]c([S+]([O-])Cc3ncc(C)c(OC)c3C)nc2n1` (configuration not stated) [TENATOPRAZOLE], the inhibition [2] was “inactive”, the inhibition [1] was greater than 55% and the IC50 [3] was greater than 100 µM. For the same compound, the IC50 [4] was 1.8 µM.
With `CC1=C(/C=C/C(C)=C/C=C/C(C)=C/C(=O)O)C(C)(C)CCC1` [TRETINOIN] the Activity [5] was 100%, the Ratio IC50 (Mus musculus) was 10 and the inhibition [2] was “inactive”. For the same compound, the inhibition [1] was greater than 55%, the Activity [6] was less than 5% and the IC50 [3] was 301 µM. It also gave an IC50 [4] of 28.7 µM.
With `Cc1c(C)c2c(c(C)c1O)CCC(C)(COc1ccc(CC3SC(=O)NC3=O)cc1)O2` (configuration not stated) [TROGLITAZONE] the Ratio IC50 (Mus musculus) was 14, the inhibition [2] was less than 20% and the inhibition [1] was greater than 55%. For the same compound, the IC50 [3] was 61 µM and the IC50 [4] was 4.5 µM.
AURANOFIN showed an inhibition [7] greater than 55%.
